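Test compounds were applied to cells in 96-well plates for 48 hours at 5 doses. Definition used: TGI = concentration required for complete inhibition of growth.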
How the values were obtained:
Assay in all cases: NCI tumour cell line growth inhibition, 48 h
[1] = tested on: LOX IMVI melanoma
[2] = tested on: MCF7 breast
[3] = tested on: HT29 colon
[4] = tested on: T-47D breast
[5] = tested on: SNB-19 CNS
[6] = tested on: HCT-15 colon
[7] = tested on: UO-31 renal
[8] = tested on: HL-60(TB) leukemia
[9] = tested on: IGROV1 ovarian
[10] = tested on: SK-MEL-28 melanoma
[11] = tested on: SR leukemia

For `CN(O)C(=O)CCC(NC(=O)CCC(N)C(=O)O)C(=O)NCC(=O)O` (centres undefined), the TGI [1] was over 100 µM, the TGI [2] was over 100 µM and the TGI [3] was over 100 µM. For the same compound, the TGI [4] was over 100 µM, the TGI [5] was over 100 µM and the TGI [6] was over 100 µM. The TGI [7] was over 100 µM, the TGI [8] was over 100 µM and the TGI [9] was over 100 µM. For the same compound, the TGI [10] was over 100 µM.
For `c1ccc2c3c(ccc2c1)-c1[nH]ncc1CCO3`, the TGI [1] was over 93.6 µM, the TGI [2] was over 100 µM and the TGI [3] was over 100 µM. It also gave a TGI [5] of over 100 µM, a TGI [6] of over 100 µM and a TGI [7] of 65.2 µM. The TGI [8] was 41.2 µM, the TGI [9] was over 86.9 µM and the TGI [10] was over 100 µM.
Work on `Fc1cc(C2=Nn3c(COc4ccccc4Cl)nnc3S/C2=C\c2ccc(Cl)cc2)c(Cl)cc1Cl` yielded a TGI [1] of 25.2 µM, a TGI [2] of 83.4 µM and a TGI [3] of over 100 µM. For the same compound, the TGI [11] was over 100 µM, the TGI [4] was over 100 µM and the TGI [6] was 20.7 µM. The TGI [7] was 93.8 µM, the TGI [8] was 68.4 µM and the TGI [9] was 33 µM. It also gave a TGI [10] of 13.4 µM.
`COC(=O)C1CCC(=O)N1C(c1ccc(OC)cc1)c1cc(OC)c(OC)c(OC)c1` (centres undefined) gave a TGI [1] of over 36.9 µM, a TGI [2] of over 100 µM and a TGI [4] of over 100 µM. It also gave a TGI [5] of over 100 µM, a TGI [6] of over 100 µM and a TGI [7] of over 100 µM. The TGI [10] was over 100 µM.
With `O=[N+]([O-])c1ncc(N(CCO)CCO)s1` the TGI [1] was 31.9 µM, the TGI [2] was over 100 µM and the TGI [3] was over 100 µM. For the same compound, the TGI [11] was over 100 µM, the TGI [4] was 81.8 µM and the TGI [5] was over 100 µM. The TGI [6] was over 100 µM, the TGI [7] was over 100 µM and the TGI [8] was 40.7 µM. It also gave a TGI [10] of 33.2 µM.
`CCOC(=O)CNC(=O)C(CCC(=O)N(C)O)NC(=O)CCC(N)C(=O)O` (centres undefined) gave a TGI [1] of over 100 µM, a TGI [2] of over 100 µM and a TGI [3] of over 100 µM. For the same compound, the TGI [4] was over 100 µM, the TGI [5] was over 100 µM and the TGI [6] was over 100 µM. It also gave a TGI [7] of over 100 µM, a TGI [8] of over 100 µM and a TGI [9] of over 100 µM. It also gave a TGI [10] of over 100 µM.
`Cc1c(NC(=S)Nc2ccc([N+](=O)[O-])cc2)c(=O)n(-c2ccccc2)n1C` gave a TGI [1] of over 100 µM, a TGI [2] of over 100 µM and a TGI [3] of over 100 µM. For the same compound, the TGI [11] was over 100 µM, the TGI [5] was over 100 µM and the TGI [6] was over 100 µM. For the same compound, the TGI [7] was over 100 µM, the TGI [8] was over 100 µM and the TGI [9] was over 100 µM. The TGI [10] was over 100 µM.
In the case of `O=c1[nH]c(NCc2cccnc2)nc2nc[nH]c12`, the TGI [1] is reported as over 100 µM, the TGI [2] is reported as over 100 µM and the TGI [3] is reported as over 100 µM. It also gave a TGI [4] of over 100 µM, a TGI [5] of over 100 µM and a TGI [6] of over 100 µM. The TGI [7] was over 100 µM and the TGI [9] was over 100 µM.
Work on `CC(C)(C)c1ccc2c(c1)OP1(Oc3c(Cl)cc(Cl)c4cccnc34)(O2)Oc2ccc(C(C)(C)C)cc2O1` yielded a TGI [1] of 19.2 µM, a TGI [2] of 17.3 µM and a TGI [3] of 19.5 µM. It also gave a TGI [5] of 22.8 µM, a TGI [6] of 19.9 µM and a TGI [7] of 19.6 µM. It also gave a TGI [8] of 10.1 µM, a TGI [9] of 25.7 µM and a TGI [10] of 28.4 µM.
For `COc1ccc(C2CC(c3c(O)ccc4ccccc34)=NN2)cc1OC` (centres undefined), the TGI [2] was 34.5 µM, the TGI [3] was 4.98 µM and the TGI [4] was 58.2 µM. For the same compound, the TGI [5] was 6.34 µM, the TGI [6] was 18.6 µM and the TGI [7] was 5.7 µM. For the same compound, the TGI [8] was 63.5 µM and the TGI [9] was 20.1 µM.
In the case of `O=P1(c2ccccc2)C(c2ccccc2)CCC1c1ccccc1` (centres undefined), the TGI [1] is reported as over 100 µM, the TGI [2] is reported as over 100 µM and the TGI [5] is reported as over 100 µM. It also gave a TGI [6] of over 100 µM, a TGI [7] of over 100 µM and a TGI [8] of 43.4 µM. It also gave a TGI [9] of over 100 µM and a TGI [10] of over 100 µM.

From PubChem BioAssay (NCI)
